One molecule from patent US20250346582A1, “SPLEEN TYROSINE KINASE INHIBITORS AND METHODS OF USE THEREOF” (THE BOARD OF TRUSTEES OF THE UNIVERSITY OF ILLINOIS, priority 2022, published 2025) can be followed below.

One data set has as its system Raji B cells. As to the kind of experiment: Cell viability assay (CellTiter-Glo), Raji cells. The class given is cell-based. The following applies: 0.5-5 μM. As for the experimental part:
All cell viability assays were conducted in a white, flat-bottom, 96-well tissue culture plate (Corning). The Raji cells were seeded at a density of 3.0×10^5 cells/well 24 h prior to the incubation with the inhibitor. Varying concentrations of WC36 (or DMSO) was then added to each well and the plates were incubated at 37° C. and at 5% CO2 for 72 h. Cell viability was quantified with the CellTiter-Glo reagent. Growth media were removed by aspiration and replaced with 100 μl fresh media and 100 μl CellTiter-Glo reagent. The plates were then gently shaken for 2 min and incubated at 25 C.° for additional 8 min. The luminescence was measured using Synergy™ Neo spectrofluorometer at 25 C.°. The luminescence value at each WC36 concentration was normalized against that without WC36. DMSO with the same volume as the WC36 solution was used as negative controls.
On the technique in general: Cellular ATP, detected with luciferase, serves as a proxy for viable cell number.

In data set [1] the target is T1, scaffolding function of Syk (Homo sapiens, UniProt P43405).
T1 construct: host or cells: MV4-11 AML cells (naive and entospletinib-resistant)
As to the kind of experiment: Co-immunoprecipitation with Syk, naïve MV4-11 cells. The class given is cell-based. The conditions noted are these: 5 μM. As for the experimental part:
(§1) MV-4-11 cells were collected by centrifugation, washed twice with phosphate phosphate-buffered saline (PBS) and resuspended in the immunoprecipitation (IP) buffer (50 mM HEPES, pH 7.4, 150 mM NaCl, 1 mM MgCl2, 1 mM EGTA, and 0.25 mM GTP) with 0.2-0.5% Triton X-100 and a protease inhibitor mix (Sigma-Aldrich). Lysates were prepared after 5 min of incubation on ice by repeated pipetting and centrifugation for 10 min at 12,000 g and at 4° C. For immunoprecipitation, the SYK-specific antibody was immobilized onto 100 μl Dynabeads/protein A (ThermoFisher) and the excess antibody was washed away by placing the tube in a DynaMag magnet and removing the supernatant. The resuspended beads were then incubated with the cell extract supernatant containing 500 μg of proteins for 1 h at 4° C. The immunoprecipitates were rinsed three times with the IP buffer and eluted with 30 μl of the sample buffer containing sodium dodecyl sulfate (SDS). For detection of proteins in total extracts (i.e., Input), 30 μg of the sample was loaded in each gel lane for western blot analysis.

Data set [2] has as its target T1, scaffolding function of Syk. Kind of data set: Co-immunoprecipitation with Syk, entospletinib-resistant MV4-11 cells. The class given is cell-based. The conditions noted are these: 5 μM. As for the experimental part:
as §1

The subject of a further data set is Syk activation. As to the kind of experiment: Immunoblotting of patient-derived primary AML cells. Format: cell-based. The conditions noted are these: primary AML cells from 4 patients refractory or relapsed. As for the experimental part:
Primary samples were obtained from an existing HEMBANK at UIC under an IRB approved research protocol (protocol #2021-0723). Cells were processed and treated with inhibitors as reported previously^75. For primary AML samples, mononuclear cells isolated by Ficoll density centrifugation were utilized. mononuclear cells were treated in culture at a density of 0.5×10^6/ml in StemSpan with CD34 expansion supplement (Stemcell Technologies) for 24 h and then harvested for immunoblotting assays. In parallel 2×10^4 cells were plated in triplicate for each treatment condition in Methoccult H4434 (Stem Cell Technologies) in the presence of drug. At days 12-14, colonies were manually enumerated under light microscopy and normalized to DMSO control for each individual sample due to interpatient variability in colony forming activity. Normalized colony forming units for pooled treated and untreated samples (n=4) were compared using unpaired 2-tailed t test. p<0.05 was considered statistically significant.
On the technique in general: Immunoblotting shows a protein as a band on a membrane.

In a further data set the target is T2, Syk-cSH2 E164Q (Homo sapiens, UniProt P43405, E164Q).
T2 construct: polyhistidine (N); made in house; host or cells: Escherichia coli BL21 (DE3) pLysS
As to the kind of experiment: Fluorescence quenching vesicle binding assay, Syk-cSH2 E164Q mutant. The following applies: POPC/POPS/PIP3/dabsyl-PE vesicles. As for the experimental part:
The membrane-binding assay is based on fluorescence quenching of EGFP fused to a SH2 domain by a dark quencher containing lipid, dabsyl-PE, incorporated in lipid vesicles. The plate reader assay was performed using the Synergy™ Neo spectrofluorometer at 25° C. Nontreated black polystyrene 96-well plates (Corning) were used. Protein (10-50 nM) with the increasing concentration of vesicles with a given lipid composition in 20 mM Tris buffer, pH 7.4, containing 0.16 M NaCl was added to each row of wells and the EGFP fluorescence emission at 516 nm was measured with excitation set at 485 nm. Z′ factor for the assay system was determined as described^74. Imax and IC50 values of inhibitors were determined using the equation, I=Imax/(1+IC50/[I]) where I and [I] indicate % inhibition and inhibitor concentration, respectively. The average and standard deviation values were obtained from triplicate determinations.

Data set [3] deals with Syk WT, E164D and E164Q. Kind of data set: Phosphorylation in Syk-deficient MV4-11 cells re-expressing Syk WT or E164 mutants. Format: cell-based, human. The following applies: Syk-deficient MV4-11 cells with full-length E164D or E164Q; 5 μM overnight. As for the experimental part:
(§2) FIGS. 5A-5B show cellular target validation of WC36. (a) Inhibition of Syk WT and WC36-binding site mutants by WC36. Entospletinib-resistant MV4-11 cells were treated with shRNA to suppress the expression of endogenous Syk and then transfected with exogenous Syk-WT and four Syk-[…] genes, respectively. These constructs harbor silent mutations to avoid gene suppression by Syk ShRNA. Phosphorylation of Syk and ERK1/2 in these cells was then monitored before and after treatment with 5 μM WC36 overnight. […] (b) Western blot analysis of WC36B-binding proteins captured by pull-down by streptavidin beads. Biotin was used as a negative control. GAPDH was used as a gel loading control.
(§3) Cells were seeded at a density of 3.0×10^5 cells/well prior to incubation with inhibitors. Cells were incubated with 1-5 μM of Syk inhibitors overnight and stimulated with different antibodies: IgG2 for AML cells, IgM for Raji B cells, and OKT3 (Biolegend) for Jurkat cells. The cells were lysed in NP40 lysis buffer (50 mM Tris, pH 7.5, 150 mM NaCl, 1 mM EDTA, 1% NP40, 10% glycerol, 10 mM NaF, 10 mM Na3VO4, and the protease inhibitor cocktail) at 4° C. and the cell debris was removed by centrifugation. Samples were analyzed by SDS-PAGE. […] The chemiluminescence intensity of protein bands in the gel was analyzed and documented by the Azure 500Q Imaging System.

In data set [4] the target is T3, Syk WT, E164D and E164Q (Homo sapiens, UniProt P43405).
T3 construct: When the full-length E164D and E164Q, respectively, were introduced into Syk-deficient MV4-11 cells; expressed in transfected cells; host or cells: entospletinib-resistant MV4-11 cells with shRNA knockdown of endogenous Syk
Described as above. The following applies: Syk WT added back to Syk-deficient AML cells; 5 μM overnight. Format: cell-based. As for the experimental part: as §2, §3

As to `[N-]=[N+]=C(C(=O)OC1CCCCC1)C(Nc1ncccn1)c1c[nH]c2ccccc12` (racemic) [WC36, Cyclohexyl 2-diazo-3-(1H-indol-3-yl)-3-(pyrimidin-2-ylamino)propanoate], the “effect on cell viability” value with Raji B cells is “minimal effect on cell viability”. In addition, the “suppression of the scaffolding function of Syk (co-precipitation)” value in data set [1] is “greatly suppressed the scaffolding function of Syk”. Besides, the “suppression of co-precipitation with Syk” value in data set [2] is recorded as “greatly suppressed co-precipitation”. Also, the “inhibition of Syk activation” value in the data set on Syk activation is reported as “significant inhibition of Syk activation”. For the same molecule, at Syk-cSH2 E164Q, the “inhibition of membrane binding of Syk-cSH2 E164Q” value is listed as “refractory to WC36 inhibition”. Further, the “inhibition of phosphorylation of Syk E164D/E164Q and ERK1/2” value with Syk WT, E164D and E164Q [3] is “did not inhibit phosphorylation of these mutants and ERK1/2”. Besides, at Syk WT, E164D and E164Q [4], the “inhibition of phosphorylation of Syk WT and ERK1/2” value is “potently suppressed phosphorylation of Syk WT and ERK1/2”.
